Results taken from patent US20030203414A1, “COMPOUNDS THAT INHIBIT THE INTERACTION BETWEEN SIGNAL-TRANSDUCING PROTEINS AND THE GLGF (PDZ/DHR) DOMAIN AND USES THEREOF” (priority 1999, published 2003).
Entries after “also recorded” stand apart in the source; their conditions may differ. No end group written: not given here.

Key:
[1] = tested on: DLD-1 human colon cancer cells; assay: Microinjection of synthetic tripeptides into DLD-1 cells, Fas-induced apoptosis; format: cell-based; conditions: tripeptide 100 mM microinjected into the cytoplasm; CH11 500 ng/ml; 16 to 20 hours postinjection; condensed chromatin, Hoechst 33342
Description: DLD-1 human colon cancer cells were cultured in RPMI 1640 medium containing 10% FCS. For microinjection, cells were plated on CELLocate (Eppendorf) at 1×10^5 cells/2 ml in a 35 mm plastic culture dish and grown for 1 day. Just before microinjection, Fas monoclonal antibodies CH11 (MBL International) was added at the concentration of 500 ng/ml. All microinjection experiments were performed using an automatic microinjection system (Eppendorf transjector 5246, micro-manipulator 5171 and Femtotips) (Pantel, et al. 1995). Synthetic tripeptides were suspended in 0.1% (w/v) FITC-Dextran (Sigma)/K-PBS at the concentration of 100 mM. The samples were microinjected into the cytoplasmic region of DLD-1 cells. Sixteen to 20 hours postinjection, the cells were washed with PBS and stained with 10 μg/ml Hoechst 33342 in PBS. After incubation at 37° C. for 30 minutes, the cells were photographed and the cells showing condensed chromatin were counted as apoptotic.
For each experiment, 25-100 cells were microinjected. Apoptosis of microinjected cells was determined by assessing morphological changes of chromatin using phase contrast and fluorescence microscopy (Wang, et al., 1995; McGahon, et al., 1995). The data are means +/−S.D. for two or three independent determinations.

Fas/FAP-1 binding = assay: In vitro inhibition assay of Fas/FAP-1 binding (GST-Fas fusion protein and in vitro-translated 35S-labeled FAP-1); conditions: for binding of in vitro-translated FAP-1 to GST-Fas: FIG. 3A, GST-Fas (191-355), C-terminal 15 amino acids at 1-1000 μM, human PAMP at 1 mM as negative control
Fas/FAP-1 binding, sequence (Q12923 1361-1456 limits assumed): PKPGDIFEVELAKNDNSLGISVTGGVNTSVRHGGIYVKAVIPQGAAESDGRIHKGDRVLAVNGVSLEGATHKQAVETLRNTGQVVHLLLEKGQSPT
Description: HFAP-10 cDNA (Sato, et al. 1995) subcloned into the Bluescript vector pSK-II (Stratagene) was in vitro-translated from an internal methionine codon in the presence of ^35S-L-methionine using a coupled in vitro transcription/translation system (Promega, TNT lysate) and T7 RNA polymerase. The resulting ^35S-labeled protein was incubated with GST-Fas fusion proteins that had been immobilized on […] affinity beads (Pharmacia) in a buffer containing 150 mM NaCl, 50 mM Tris [pH 8.0], 5 mM DTT, 2 mM EDTA, 0.1% NP-40, 1 mM PMSF, 50 μg/ml leupeptin, 1 mM Benzamidine, and 7 μg/ml pepstatin for 16 hours at 4° C. After washing vigorously 4 times in the same buffer, associated proteins were recovered with the glutathione-Sepharose beads by centrifugation, eluted into boiling Laemmli buffer, and analyzed by SDS-PAGE and fluorography.
In vitro-translated [^35]HFAP-1 was purified with a NAP-5 column (Pharmacia) and incubated with 3 μM of GST-fusion proteins for 16 hours at 4° C. After washing 4 times in the binding buffer, radioactivity incorporation was determined in a b counter. The percentage of binding inhibition was calculated as follows: percent inhibition=[radioactivity incorporation using GST-Fas (191-335) with peptides−radioactivity incorporation using GST-Fas (191-320) with peptides]/[radioactivity incorporation using GST-Fas (191-335) without peptides−radioactivity incorporation using GST-Fas (191-320) without peptides]. n=3.

[2] = biological target: T1, binding of FAP-1 to Fas proteins extracted from Jurkat T-cells (Homo sapiens, UniProt Q12923); assay: Immuno-precipitation of native Fas from Jurkat T-cell extracts with GST-FAP-1, inhibition with tripeptides; conditions: FIGS. 4C and 4D, Western analysis with anti-Fas monoclonal antibody
T1 construct: made in house; Fas is endogenous in Jurkat T-cell extract
T1 sequence (Q12923 whole entry): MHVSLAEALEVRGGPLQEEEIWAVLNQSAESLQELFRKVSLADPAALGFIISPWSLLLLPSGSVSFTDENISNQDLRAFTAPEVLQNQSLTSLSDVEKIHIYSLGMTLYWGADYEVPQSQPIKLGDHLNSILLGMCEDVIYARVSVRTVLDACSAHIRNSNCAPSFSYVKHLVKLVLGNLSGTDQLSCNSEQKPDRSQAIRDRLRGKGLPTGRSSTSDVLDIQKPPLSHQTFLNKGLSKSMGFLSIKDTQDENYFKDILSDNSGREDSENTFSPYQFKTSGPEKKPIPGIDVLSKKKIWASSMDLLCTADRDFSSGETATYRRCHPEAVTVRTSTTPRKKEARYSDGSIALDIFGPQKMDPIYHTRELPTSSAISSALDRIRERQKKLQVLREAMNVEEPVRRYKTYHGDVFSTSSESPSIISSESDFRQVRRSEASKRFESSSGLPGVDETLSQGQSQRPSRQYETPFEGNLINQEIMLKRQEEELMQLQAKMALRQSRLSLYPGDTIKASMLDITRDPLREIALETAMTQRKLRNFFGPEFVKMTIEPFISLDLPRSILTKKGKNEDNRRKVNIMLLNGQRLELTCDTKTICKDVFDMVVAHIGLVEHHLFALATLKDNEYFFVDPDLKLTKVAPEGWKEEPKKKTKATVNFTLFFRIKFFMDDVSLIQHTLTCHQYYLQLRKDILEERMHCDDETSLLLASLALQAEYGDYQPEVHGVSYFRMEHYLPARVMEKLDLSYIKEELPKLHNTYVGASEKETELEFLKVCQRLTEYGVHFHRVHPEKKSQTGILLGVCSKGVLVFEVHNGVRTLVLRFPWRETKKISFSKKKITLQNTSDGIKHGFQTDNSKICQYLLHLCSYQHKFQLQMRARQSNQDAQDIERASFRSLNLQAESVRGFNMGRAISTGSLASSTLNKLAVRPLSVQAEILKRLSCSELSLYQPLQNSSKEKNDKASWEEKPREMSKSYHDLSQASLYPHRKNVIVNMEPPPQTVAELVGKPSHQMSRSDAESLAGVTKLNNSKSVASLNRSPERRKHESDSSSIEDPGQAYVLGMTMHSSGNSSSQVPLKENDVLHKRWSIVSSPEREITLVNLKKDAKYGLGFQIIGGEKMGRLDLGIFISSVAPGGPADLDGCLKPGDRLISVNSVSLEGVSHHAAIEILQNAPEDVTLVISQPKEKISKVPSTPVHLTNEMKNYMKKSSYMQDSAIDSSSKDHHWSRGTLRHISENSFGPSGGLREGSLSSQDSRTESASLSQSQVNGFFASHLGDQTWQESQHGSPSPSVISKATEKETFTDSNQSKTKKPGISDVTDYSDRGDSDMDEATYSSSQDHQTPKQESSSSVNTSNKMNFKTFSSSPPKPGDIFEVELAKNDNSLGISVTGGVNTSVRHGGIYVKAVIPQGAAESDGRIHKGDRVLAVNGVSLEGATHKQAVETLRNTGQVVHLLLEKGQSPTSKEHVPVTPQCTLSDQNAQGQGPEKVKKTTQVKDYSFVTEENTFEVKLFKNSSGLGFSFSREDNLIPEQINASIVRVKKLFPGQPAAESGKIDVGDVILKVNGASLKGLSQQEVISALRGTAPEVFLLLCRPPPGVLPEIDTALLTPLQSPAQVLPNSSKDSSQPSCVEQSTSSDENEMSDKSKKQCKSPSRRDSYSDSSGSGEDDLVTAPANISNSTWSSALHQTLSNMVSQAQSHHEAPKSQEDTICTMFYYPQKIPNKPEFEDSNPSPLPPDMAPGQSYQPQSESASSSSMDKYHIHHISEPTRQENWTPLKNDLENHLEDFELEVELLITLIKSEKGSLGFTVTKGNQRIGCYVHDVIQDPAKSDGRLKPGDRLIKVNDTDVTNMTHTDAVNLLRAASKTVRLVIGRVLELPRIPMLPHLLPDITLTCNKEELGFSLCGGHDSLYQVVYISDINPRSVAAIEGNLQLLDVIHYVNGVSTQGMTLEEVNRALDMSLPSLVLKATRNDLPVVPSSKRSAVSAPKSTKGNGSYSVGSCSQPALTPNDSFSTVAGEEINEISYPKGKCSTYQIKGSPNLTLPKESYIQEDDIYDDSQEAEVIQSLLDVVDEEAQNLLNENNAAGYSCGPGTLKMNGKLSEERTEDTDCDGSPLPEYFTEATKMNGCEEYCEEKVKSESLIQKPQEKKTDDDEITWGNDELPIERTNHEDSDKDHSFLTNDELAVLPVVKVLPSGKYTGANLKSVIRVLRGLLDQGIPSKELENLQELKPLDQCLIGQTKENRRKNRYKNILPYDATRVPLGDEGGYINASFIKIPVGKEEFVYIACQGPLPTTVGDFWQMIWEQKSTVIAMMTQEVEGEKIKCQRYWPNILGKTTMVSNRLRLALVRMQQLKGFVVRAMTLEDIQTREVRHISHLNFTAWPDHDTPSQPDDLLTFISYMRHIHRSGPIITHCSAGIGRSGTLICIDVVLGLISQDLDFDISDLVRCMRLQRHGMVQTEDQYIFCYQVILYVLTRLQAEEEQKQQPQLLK
Description: GST-fusion proteins with or without FAP-1 were incubated with cell extracts from Jurkat T-cells expressing Fas. The bound Fas was detected by Western analysis using anti-Fas monoclonal antibody (F22120, Transduction Laboratories). The tripeptides, Ac-SLV and Ac-SLY were used for the inhibition assay of Fas/FAP-1 binding.

| inhibitory effect on the binding of FAP-1 to Fas, truncated C-terminal peptides (Fas/FAP-1 binding; FIG. 3B, acetylated synthetic peptides) | binding activity of FAP-1 to Fas proteins extracted from Jurkat T-cells [2] | binding of in vitro-translated FAP-1 to GST-Fas (Fas/FAP-1 binding) | Substance | induction of apoptosis in microinjected DLD-1 cells [1] |
| --- | --- | --- | --- | --- |
| same level of inhibitory effect | abolished in a dose-dependent manner | – | Ac-SLV-COOH (Ac-Ser-Leu-Val-OH) [acetylated tripeptide, the three C-terminal amino acids of Fas] | dramatically induced apoptosis; also recorded: showed condensed chromatin |
| – | not | – | Ac-SLY: acetylated synthetic tripeptide SLY used as a non-binding control (Ac-Ser-Leu-Tyr) [reference compound] | did not; also recorded: only one cell of the area appeared apoptotic |
| – | – | dramatically reduced | DSENSNFRNEIQSLV (Ac-DSENSNFRNEIQSLV) [synthetic 15 amino acids of Fas, synthetic peptide of the C-terminal 15 amino acids of Fas] | – |
| – | – | had no effect | human PAMP peptide: N-terminal 20 amino acids of proadrenomedullin, negative control (ARLDVASEFRKKWNKWALSR; ends and bridges not checked; UniProt P35318 22-41, looked up) [reference compound] | – |
